# Results published in article PMC5085249, “The Diguanylate Cyclase HsbD Intersects with the HptB Regulatory Cascade to Control Pseudomonas aeruginosa Biofilm and Motility” (PLoS Genetics, 2016).
# Biological target: T1, HsbD (PA3343) (Pseudomonas aeruginosa, UniProt Q9HYQ2)
# T1 construct: His-HsbD overexpressed in E. coli BL21(DE3), whole-cell lysate; native protein 389 aa, six predicted TM domains (52-206), GGDEF domain 252-389; tag kept
# Experiment: DRaCALA (nitrocellulose, […]-labelled ligand)
# Assay type: binding
# Settings: 4 nM 32P-c-di-GMP; E. coli whole-cell lysate; 40 mM Tris pH 7.5, 100 mM NaCl, 10 mM MgCl2; allosteric inhibitory I-site; labelled compound
# T1 sequence (Q9HYQ2 entry or part of it): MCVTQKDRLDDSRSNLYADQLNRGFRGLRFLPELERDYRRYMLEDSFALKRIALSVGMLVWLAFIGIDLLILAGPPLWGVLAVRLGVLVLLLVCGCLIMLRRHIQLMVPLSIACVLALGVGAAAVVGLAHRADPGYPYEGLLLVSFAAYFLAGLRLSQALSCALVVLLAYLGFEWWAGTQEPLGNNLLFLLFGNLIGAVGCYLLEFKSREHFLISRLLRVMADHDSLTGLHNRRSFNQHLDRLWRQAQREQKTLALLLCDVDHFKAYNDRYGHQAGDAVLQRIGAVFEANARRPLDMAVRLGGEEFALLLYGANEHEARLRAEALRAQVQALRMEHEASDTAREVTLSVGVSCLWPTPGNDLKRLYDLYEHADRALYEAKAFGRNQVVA
structure (smiles),measurement,value
Nc1nc2c(ncn2[C@@H]2O[C@@H]3COP(=O)(O)O[C@H]4[C@@H](O)[C@H](n5cnc6c(=O)[nH]c(N)nc65)O[C@@H]4COP(=O)(O)O[C@H]3[C@H]2O)c(=O)[nH]1 [c-di-GMP],fraction bound,Significant c-di-GMP binding was observed with the construct encoding wild-type HsbD
